# Counter-ions that a name gives are not always drawn. Like-named read-outs stand apart in the source and are kept apart here.
# How the values were obtained:
# [1] = target: T1, Recombinant human PKC-delta (His-tagged 345-676) (Homo sapiens, UniProt Q05655); assay: PKC-delta inhibition assay (HTRF KinEASE kit); format: biochemical; conditions: ratio, PKC-theta vs PKC-delta HTRF; for PKC-theta/PKC-delta selectivity (binned): binned A to G
# T1 construct: PKC-delta (His-tagged 345-676); His
# Description: PKC-theta and PKC-delta biochemical activities were measured using the PKC-theta HTRF KinEASEkit kit, according to manufacturer's instructions (Cisbio, catalogue number 61ST1PEJ). Briefly, the kinase buffer component of the kit was supplemented with 10 mM MgCl2, 1 mM DTT and 0.1% Tween 20. […] The streptavidin_XL665 and STK antibody-cryptate detection reagents were mixed according to the manufacturer's instructions. Test compounds were diluted in DMSO in a series of 10 semi-log step doses; 10 nL of each compound dose were dispensed in 384 well plates. […] The reaction was started by addition of the substrate and ATP and incubated at 25° C. for 30 minutes or 20 minutes for the PKC-theta and PKC-delta assays, respectively. The detection reagents were added, and the plate was incubated in the dark for 2 hours. […] The ratio of acceptor and donor emission signals was calculated for each well.
# [2] = system: IL-2 secretion by human effector memory T cells (TEM); assay: Effector memory T cells IL-2 release assay (CD3/CD28 stimulation, HTRF IL-2 detection); format: cell-based; conditions: Homo sapiens, T-cell, 24 h
# Method in brief: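 IL-2 released into the supernatant was quantified by HTRF after 24 h at 37 °C in 5% CO2. The cells were stimulated primary human TEM from donor buffy coats, treated with a 10-point semi-log compound series (0.1% DMSO final, triplicates).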
# [3] = target: T2, Recombinant human PKC-theta (His-tagged 362-706) (Homo sapiens, UniProt Q04759); assay: PKC-theta inhibition assay (HTRF KinEASE kit); format: biochemical; conditions: STK substrate 525 nM
# T2 construct: Recombinant human PKC-theta (His-tagged 362-706); His
# Method in brief: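 IC50 values were from 4-parameter logistic fits of percent inhibition, based on acceptor/donor HTRF ratios over 10 semi-log compound doses. Kinase reactions, started with substrate plus ATP, ran 30 min at 25 °C in buffer supplemented with 10 mM MgCl2, 1 mM DTT and 0.1% Tween 20; detection lasted 2 h.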
# [4] = binned A to G, read-out: PKC-theta IL2 pIC50 (binned) (converted)
# [5] = read-out: PKC-theta IL2 pIC50 (converted)
# [6] = ATP 6.5 μM, binned A to H, read-out: PKC-theta HTRF pIC50 (binned) (converted)
# [7] = ATP 6.5 μM, read-out: PKC-theta HTRF pIC50 (converted)
# T2 sequence (Q04759 362-706): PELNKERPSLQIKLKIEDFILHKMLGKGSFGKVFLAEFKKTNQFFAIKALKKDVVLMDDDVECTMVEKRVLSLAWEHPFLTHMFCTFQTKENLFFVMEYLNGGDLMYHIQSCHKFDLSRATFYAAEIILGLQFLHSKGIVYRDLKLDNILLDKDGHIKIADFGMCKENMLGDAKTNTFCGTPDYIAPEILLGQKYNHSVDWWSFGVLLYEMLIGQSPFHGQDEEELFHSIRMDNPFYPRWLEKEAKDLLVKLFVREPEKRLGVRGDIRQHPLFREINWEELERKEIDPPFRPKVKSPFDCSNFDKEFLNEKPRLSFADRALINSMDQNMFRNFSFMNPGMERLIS
# T1 sequence (Q05655 345-676): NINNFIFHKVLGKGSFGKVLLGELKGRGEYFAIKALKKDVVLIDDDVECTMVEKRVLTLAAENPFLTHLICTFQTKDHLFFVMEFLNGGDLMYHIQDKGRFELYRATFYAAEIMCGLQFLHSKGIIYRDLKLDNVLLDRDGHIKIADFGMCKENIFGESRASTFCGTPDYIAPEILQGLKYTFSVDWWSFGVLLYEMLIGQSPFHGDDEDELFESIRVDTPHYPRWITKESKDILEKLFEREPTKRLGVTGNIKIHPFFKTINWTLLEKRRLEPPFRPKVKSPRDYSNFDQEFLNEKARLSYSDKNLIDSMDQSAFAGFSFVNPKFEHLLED
Compound,PKC-theta/PKC-delta selectivity [1],PKC-theta/PKC-delta selectivity (binned) [1],"IC50 [2, 4]","IC50 [2, 5]","IC50 [3, 6]","IC50 [3, 7]","IC50 ([3]; PKC-theta HTRF pIC50 (binned), ATP 6.5 μM, binned A to H)","IC50 ([3]; PKC-theta HTRF pIC50, ATP 6.5 μM)"
"C[C@H]1CN(c2cc(Cl)cc(-c3ccnc4c3[C@](C)(O)C(=O)N4)n2)CCN1 (single isomer, unassigned) [Example 110]",16,D (a ratio of between 10 and 20),10 to 31.6 nM,25.1 nM,0.316 to 1 nM,1 nM,,
CC[C@H]1CN(c2cc(Cl)cc(-c3ccnc4c3C(C)(C)C(=O)N4)n2)CCN1 [Example 145],25,C (a ratio of between 20 and 30),10 to 31.6 nM,15.8 nM,0.316 to 1 nM,0.794 nM,,
CC1(C)C(=O)Nc2nccc(-c3cc(C(F)(F)F)cc(N4CCN[C@H]5COC[C@H]54)n3)c21 [Example 192],31,B (a ratio of between 30 and 50),100 to 316 nM,158 nM,3.16 to 10 nM,3.98 nM,,
"CC[C@@]1(C)C(=O)Nc2nccc(-c3cc(C(C)(F)F)cc(N4CCN[C@@H](C)C4)n3)c21 (single isomer, unassigned) [Example 200]",27,C (a ratio of between 20 and 30),31.6 to 100 nM,79.4 nM,3.16 to 10 nM,5.01 nM,,
CC1(C)C(=O)Nc2nccc(-c3cc(Cl)cc(N4CCNCC4)n3)c21 [Example 65],14,D (a ratio of between 10 and 20),100 to 316 nM,200 nM,1 to 3.16 nM,2 nM,,
C[C@@H]1CN[C@@H](C)CN1c1cc(C(F)(F)F)cc(-c2ccnc3c2C(C)(C)C(=O)N3)n1 [Example 177],24,C (a ratio of between 20 and 30),31.6 to 100 nM,63.1 nM,3.16 to 10 nM,6.31 nM,,
CCC1C(=O)Nc2nccc(-c3cccc(N4CCNCC4)c3)c21 (stereo not drawn) [Example 21],1,F (a ratio of between 1 and 5),316 to 1000 nM,1000 nM,316 to 1000 nM,316 nM,,
CC1(C)C(=O)Nc2nccc(-c3cc(OC(F)F)cc(N4CCNCC4)n3)c21 [Example 86],10,E (a ratio of between 5 and 10),316 to 1000 nM,501 nM,31.6 to 100 nM,31.6 nM,,
CC1C(=O)Nc2ncnc(-c3cccc(N4CCNCC4)c3)c21 (stereo not drawn) [Example 24],1,F (a ratio of between 1 and 5),> 1000 nM,2000 nM,316 to 1000 nM,1000 nM,,
CC1(C)C(=O)Nc2nccc(-c3cc(C(F)(F)F)cc(N4CCNCC4C(F)F)n3)c21 (stereo not drawn) [Example 160],9,E (a ratio of between 5 and 10),31.6 to 100 nM,100 nM,1 to 3.16 nM,3.16 nM,,
"C[C@@]1(O)C(=O)Nc2nccc(-c3cc(C(F)(F)F)cc(N4CC5CCC4CN5)n3)c21 (single isomer, unassigned) [Example 138]",16,D (a ratio of between 10 and 20),316 to 1000 nM,631 nM,10 to 31.6 nM,15.8 nM,,
"CO[C@]1(C)C(=O)Nc2nccc(-c3cc(C(F)(F)F)cc(N4CCNC[C@H]4C)n3)c21 (single isomer, unassigned) [Example 158]",10,E (a ratio of between 5 and 10),100 to 316 nM,200 nM,3.16 to 10 nM,6.31 nM,,
"C[C@@H]1CNCCN1c1cc(C(F)(F)F)cc(-c2ccnc3c2[C@](C)(O)C(=O)N3)n1 (single isomer, unassigned) [Example 94]",9,E (a ratio of between 5 and 10),10 to 31.6 nM,20 nM,1 to 3.16 nM,2 nM,,
CC(F)(F)c1cc(-c2c(F)cnc3c2C(C)(C)C(=O)N3)nc(N2CCNCC2)c1 [Example 174],10,D (a ratio of between 10 and 20),100 to 316 nM,316 nM,31.6 to 100 nM,31.6 nM,,
CC[C@H]1CN(c2cccc(-c3ccnc4c3C(C)(CC)C(=O)N4)n2)CCN1 (stereo partly drawn) [Example 148],3,F (a ratio of between 1 and 5),100 to 316 nM,158 nM,10 to 31.6 nM,20 nM,,
O=c1[nH]c2nccc(-c3cccc(N4CCNCC4)n3)c2[nH]1 [Example 14],2,F (a ratio of between 1 and 5),316 to 1000 nM,631 nM,100 to 316 nM,100 nM,,
"CC[C@@H]1CNCCN1c1cc(C(F)(F)F)cc(-c2ccnc3c2[C@](C)(O)C(=O)N3)n1 (single isomer, unassigned) [Example 129]",3,F (a ratio of between 1 and 5),3.16 to 10 nM,3.98 nM,0.316 to 1 nM,0.501 nM,,
CC1(C)C(=O)Nc2nccc(-c3cc(Cl)cc(N4CCNCC4)c3)c21 [Example 40],4,F (a ratio of between 1 and 5),316 to 1000 nM,398 nM,31.6 to 100 nM,31.6 nM,,
CC[C@H]1CN(c2cc(Cl)cc(-c3ccnc4c3C(C)(OC)C(=O)N4)n2)CCN1 (stereo partly drawn) [Example 130],8,E (a ratio of between 5 and 10),100 to 316 nM,158 nM,3.16 to 10 nM,7.94 nM,,
C[C@@H]1NCCN(c2cc(C(F)(F)F)cc(-c3ccnc4c3[C@](C)(O)C(=O)N4)n2)[C@@H]1C [Example 126],12,D (a ratio of between 10 and 20),10 to 31.6 nM,25.1 nM,1 to 3.16 nM,1.26 nM,,
CN1CCN(c2cc(C(F)(F)F)cc(-c3ccnc4c3C(C)(C)C(=O)N4)n2)CC1 [Example 99],22,C (a ratio of between 20 and 30),316 to 1000 nM,794 nM,10 to 31.6 nM,31.6 nM,,
"CC1(C)CN(c2cc(Cl)cc(-c3ccnc4c3[C@](C)(O)C(=O)N4)n2)CCN1 (single isomer, unassigned) [Example 133]",10,D (a ratio of between 10 and 20),31.6 to 100 nM,50.1 nM,1 to 3.16 nM,2.51 nM,,
CCC1(C)C(=O)Nc2nccc(-c3cc(F)cc(N4CCNCC4)c3)c21 (stereo not drawn) [Example 33],2,F (a ratio of between 1 and 5),316 to 1000 nM,794 nM,31.6 to 100 nM,50.1 nM,,
CC1(Cc2ccccc2)C(=O)Nc2nccc(-c3cccc(N4CCNCC4)c3)c21 (stereo not drawn) [Example 49],1,F (a ratio of between 1 and 5),> 1000 nM,3980 nM,316 to 1000 nM,1000 nM,,
C[C@@H]1CN(c2cccc(-c3ccnc4[nH]c(=O)[nH]c34)c2)C[C@H](C)N1 [Example 11],4,F (a ratio of between 1 and 5),> 1000 nM,6310 nM,> 1000 nM,2510 nM,,
"C[C@H]1CNCCN1c1cccc(-c2ccnc3[nH]c(=O)[nH]c23)c1 [Example 8, 7-[3-[(2S)-2-methylpiperazin-1-yl]phenyl]-1,3-dihydroimidazo[4,5-b]pyridin-2-one dihydrochloride]",2,F (a ratio of between 1 and 5),> 1000 nM,3980 nM,,,316 to 1000 nM,398 nM
"CC[C@]1(C)C(=O)Nc2nccc(-c3cc(C(C)(F)F)cc(N4CCNC[C@H]4C)n3)c21 (single isomer, unassigned) [Example 201]",18,D (a ratio of between 10 and 20),3.16 to 10 nM,7.94 nM,0.316 to 1 nM,0.501 nM,,
CN1CCN(c2cccc(-c3ccnc4[nH]c(=O)[nH]c34)c2)CC1 [Example 17],2,F (a ratio of between 1 and 5),> 1000 nM,10000 nM,> 1000 nM,5010 nM,,

# — patent US20260035367A1 (Celgene Corporation, priority 2021, published 2026)
